Like-named read-outs stand apart in the source and are kept apart here.
Key:
[1] = tested on: FaDu; assay: Wound healing assay; format: cell-based, human; settings: IC25 concentration, area closed
Procedure: (§1) The wound healing activity of complexes 3 and 4 was evaluated using the ibidi Culture-Insert 2 Well in a μ-dish. Cells were plated by applying 70 μL of cell suspension at a density of 50,000 cells into both wells of the Culture-Insert 2 Well and grown over the weekend. Once confluency was achieved, sterile tweezers were used to detach the Culture-Insert 2 Well from the μ-dish. The cell layer was then gently washed with PBS. Subsequently, the cell layer was treated with medium containing complex 3 or 4 at the IC25 concentration, and wound closure was observed and photographed using an inverted light microscope (0–55 h of incubation). Experiments were performed in four independent replicates.
(§2) An in vitro wound healing assay was performed to determine the effect of complex 3 or 4 on cell migration. The area of the wound bordered by a monolayer of cells was measured using ImageJ software. Wound closure was monitored from 0 to 55 h. […] Microscope images after 24 h for all cell lines, as well as 55 h, can be seen in Supplementary Figure S7. […] The stained wound healing area after 55 h is shown in Supplementary Figure S10.

[2] = tested on: CAL 27; assay: Wound healing assay; format: cell-based, human; settings: IC25 concentration, area closed
Procedure: as §1, §2

[3] = tested on: KB; assay: Wound healing assay; format: cell-based, human; settings: IC25 concentration, area closed
Procedure: as §1, §2

[4] = tested on: Detroit 562; assay: Wound healing assay; format: cell-based, human; settings: IC25 concentration, area closed
Procedure: as §1, §2

[5] = tested on: HGF; assay: Wound healing assay; format: cell-based, human; settings: IC25 concentration, area closed
Procedure: as §1, §2

[6] = UV–Vis spectroscopy in PBS (solubility); format: physicochemical; settings: PBS (PBS:DMSO 99:1), UV–Vis linearity of absorbance
Procedure: All chemicals were sourced from commercial suppliers and utilized directly without any additional purification steps. Nuclear Magnetic Resonance (NMR) spectra were acquired on a 400-MHz spectrometer (JEOL, Tokyo, Japan) at 25°C. The chemical shifts (δ) are given in parts per million (ppm), with coupling constants (J) measured in hertz (Hz). The ^1H and ^13C NMR shifts are referenced to TMS, and solvent signals from Dimethyl Sulfoxide (DMSO)-d6 (2.50 ppm for ^1H and 39.52 ppm for ^13C) were used as references. Data analysis was performed using MestReNova software (version 14.2.1, Mestrelab Research S.L., Santiago de Compostela, SPAIN). Full assignment was performed using a combination of ^1H, ^13C, correlation spectroscopy (COSY), heteronuclear single quantum coherence (HSQC), and heteronuclear multiple bond correlation (HMBC) experiments. Mass spectrometry was conducted in positive ion mode using electrospray ionization (ESI^+) with a high-resolution hybrid Ion Trap-Orbitrap mass spectrometer (LTQ Orbitrap Velos, Thermo Scientific, Waltham, Massachusetts, USA), Supplementary Figures S21, S22. Detailed NMR spectra for all synthesized products are available in Supplementary Figures S12-S20. […] Characteristic absorption maxima were identified, and their dependence on concentration was evaluated.

[7] = tested on: FaDu; assay: MTT viability assay; format: cell-based, human
Procedure: (§3) A colorimetric 3-(4,5-dimethylthiazolyl)-2,5-diphenyltetrazolium bromide (MTT) cell metabolic activity assay was used to assess the cytotoxicity of complexes 3 and 4. The cells (described above) were cultured under standard conditions. Cells were seeded in 96-well plates at a density of 10,000 cells per well (200 μL) and allowed to grow for 24 h. The medium was then replaced with medium containing complex 3 or 4 at a concentration ranging from 0 to 200 μM, and the cells were incubated for an additional 24, 48, and 72 h. Subsequently, the medium was replaced with MTT solution, consisting of yellow tetrazolium dye 3-(4,5-dimethylthiazol-2-yl)-2,5-diphenyltetrazolium bromide (Sigma-Aldrich, Merck, Germany), and incubated for 2 h at 37°C. The dye was then removed, and the resulting purple formazan formed in viable cells was dissolved in DMSO, followed by shaking for 30 s. Absorbance was measured at 570 nm using an […] 200 PRO microplate reader (TECAN, Männedorf, Switzerland). All experiments were performed in quadruplicate and repeated three times.
(§4) The cell inhibitory concentration (IC) was calculated using the equation IC = (Acomplex3/complex4 well/mean Acontrol wells) × 100%. The half-maximal inhibitory concentration (IC50) was determined from dose–response curves using GraphPad Prism 10 (GraphPad Software Inc., La Jolla, CA, USA). The selectivity index toward cancer cells was calculated as a ratio of the average IC50 value for HGF to the IC50 value for the corresponding cancer cell line.

[8] = tested on: CAL 27; assay: MTT viability assay; format: cell-based, human
Procedure: as §3, §4

[9] = tested on: KB; assay: MTT viability assay; format: cell-based, human
Procedure: as §3, §4

[10] = tested on: TR146; assay: MTT viability assay; format: cell-based, human
Procedure: as §3, §4

[11] = tested on: Detroit 562; assay: MTT viability assay; format: cell-based, human
Procedure: as §3, §4

[12] = tested on: SCC-9; assay: MTT viability assay; format: cell-based, human
Procedure: as §3, §4

[13] = tested on: Hep-2; assay: MTT viability assay; format: cell-based, human
Procedure: as §3, §4

[14] = tested on: HGF; assay: MTT viability assay; format: cell-based, human
Procedure: as §3, §4

SMILES: Cc1ccc(C(C)C)cc1.Cc1ccc(C(C)C)cc1.O=C1C(=Cc2ccnc3ccccc23)COCC1=Cc1ccnc2ccccc12.[Cl][Ru][Cl].[Cl][Ru][Cl] [Complex 3]
- Wound area (%) ([1]; 24 h): 7 ± 1%
- Wound area (%) ([1]; 48 h): 9 ± 1%
- Wound area (%) ([1]; 55 h): less than 20%
- Wound area (%) ([1]; 55 h, listed as C3): 12 ± 1%
- Wound area (%) ([2]; CAL 27, 24 h): 10 ± 2%
- Wound area (%) ([2]; CAL 27, 48 h): 15 ± 3%
- Wound area (%) ([2]; CAL 27, 55 h): less than 20%
- Wound area (%) ([2]; CAL 27, 55 h, listed as C3): 16 ± 3%
- Wound area (%) ([3]; 24 h): 7 ± 1%
- Wound area (%) ([3]; 48 h): 13 ± 1%
- Wound area (%) ([3]; 55 h): less than 20%
- Wound area (%) ([3]; 55 h, listed as C3): 17 ± 2%
- Wound area (%) ([4]; Detroit 562, 24 h): 8 ± 2%
- Wound area (%) ([4]; Detroit 562, 48 h): 9 ± 3%
- Wound area (%) ([4]; Detroit 562, 55 h): less than 20%
- Wound area (%) ([4]; Detroit 562, 55 h, listed as C3): 10 ± 2%
- Wound area (%) ([5]; 24 h): 8 ± 3%
- Wound area (%) ([5]; 48 h): 13 ± 5%
- Wound area (%) ([5]; 55 h): 71 ± 2%
- Solubility in the buffered environment [6]: sufficient solubility
- IC50 ([7]; 24 h, read-out: IC50 24h): 8.65 µM
- IC50 ([7]; 48 h, read-out: IC50 48h): 5.75 ± 0.06 µM
- IC50 ([7]; 72 h, read-out: IC50 72h): 3.85 ± 0.24 µM
- IC50 ([8]; CAL 27, 24 h, read-out: IC50 24h): 22.5 ± 1.08 µM
- IC50 ([8]; CAL 27, 48 h, read-out: IC50 48h): 12.9 ± 2.56 µM
- IC50 ([8]; CAL 27, 72 h, read-out: IC50 72h): 6.35 ± 1.75 µM
- IC50 ([9]; 24 h, read-out: IC50 24h): 14.3 µM
- IC50 ([9]; 48 h, read-out: IC50 48h): 10.5 ± 0.43 µM
- IC50 ([9]; 72 h, read-out: IC50 72h): 3.7 ± 0.42 µM
- IC50 ([10]; TR146, 24 h, read-out: IC50 24h): 19.7 ± 4.82 µM
- IC50 ([10]; TR146, 48 h, read-out: IC50 48h): 11.3 ± 0.78 µM
- IC50 ([10]; TR146, 72 h, read-out: IC50 72h): 4.9 ± 0.42 µM
- IC50 ([11]; Detroit 562, 24 h, read-out: IC50 24h): 12.3 ± 1.83 µM
- IC50 ([11]; Detroit 562, 48 h, read-out: IC50 48h): 3.9 ± 0.13 µM
- IC50 ([11]; Detroit 562, 72 h, read-out: IC50 72h): 3.5 ± 0.11 µM
- IC50 ([12]; SCC-9, 24 h, read-out: IC50 24h): 4.7 µM
- IC50 ([12]; SCC-9, 48 h, read-out: IC50 48h): 2.85 ± 0.01 µM
- IC50 ([12]; SCC-9, 72 h, read-out: IC50 72h): 2.8 ± 0.01 µM
- IC50 ([13]; Hep-2, 24 h, read-out: IC50 24h): 12.7 µM
- IC50 ([13]; Hep-2, 48 h, read-out: IC50 48h): 11.1 ± 0.32 µM
- IC50 ([13]; Hep-2, 72 h, read-out: IC50 72h): 5.15 ± 0.07 µM
- IC50 ([14]; 24 h, read-out: IC50 24h): 20.8 ± 3.95 µM
- IC50 ([14]; 48 h, read-out: IC50 48h): 13 ± 0.27 µM
- IC50 ([14]; 72 h, read-out: IC50 72h): 9.15 ± 1.2 µM
